Experimental data reported in patent US20250368666A1, “INDAZOLE COMPOUNDS” (TYRA BIOSCIENCES, INC., priority 2022, published 2025).

Legend:
[1] = test system: HuH7 cell line (FGF19 amplification); assay: Cancer cell line cell viability assay (Cell Titer-Glo), 120 hr; type: cell-based; details: Homo sapiens, Huh-7
Outline: (§1)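 Intracellular ATP was measured by Cell Titer-Glo 2.0 luminescence after cells were incubated with compound dilutions (top 3 μM, 4-fold, 9 doses). Values were expressed relative to DMSO-treated cells and IC50 was calculated from a variable-slope dose-response curve.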

[2] = test system: RT112/84 cell line (FGFR3-fusion); assay: Cancer cell line cell viability assay (Cell Titer-Glo), 72 hr; type: cell-based; details: Homo sapiens, RT112/84, RT112/84 cell line (FGFR3-fusion)
Outline: as §1

[3] = test system: KG-1 cell line (FGFR 1-fusion); assay: as above; type: cell-based; details: Homo sapiens, KG-1, KG-1 cell line (FGFR1-fusion)
Outline: as §1

[4] = test system: KATO-III cell line (FGFR2 amplification); assay: as above; type: cell-based; details: Homo sapiens, KATO III
Outline: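 Luminescent ATP read-out (Cell Titer-Glo 2.0) after compound exposure, normalised to DMSO-only wells. Dosing: 9 concentrations, 4-fold steps, top 3 μM, triplicates. IC50 derived by log(inhibitor) vs. response 4-parameter fit.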

FGFR4 = target: T1, FGFR4 (Homo sapiens, UniProt P22455); assay: Kinase binding assay (kinase-tagged T7 phage, affinity beads, qPCR), Kd; details: read-out: FGFR4 (Kd nM)
T1 construct: made in house; host or cells: E. coli (BL21-derived), T7 phage
Outline: (§2)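 T7 phage displaying each kinase, grown in a BL21-derived E. coli host at 32° C until lysis, competed with test compound for biotinylated ligand immobilised on streptavidin beads. Bead-bound kinase was eluted and quantified by qPCR. Kd came from an 11-point 3-fold dilution series fitted to the Hill equation with slope fixed at −1.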

FGFR3 = target: T2, FGFR3 (Homo sapiens, UniProt P22607); assay: as above; details: read-out: FGFR3 (Kd nM)
T2 construct: made in house; host or cells: E. coli (BL21-derived), T7 phage
Outline: as §2

FGFR1 = target: T3, FGFR1 (Homo sapiens, UniProt P11362); assay: as above; details: read-out: FGFR1 (Kd nM)
T3 construct: made in house; host or cells: E. coli (BL21-derived), T7 phage
Outline: as §2

FGFR2 = target: T4, FGFR2 (Homo sapiens, UniProt P21802); assay: as above; details: read-out: FGFR2 (Kd nM)
T4 construct: made in house; host or cells: E. coli (BL21-derived), T7 phage
Outline: as §2

FGFR3 (V555M) = target: T5, FGFR3 (V555M) (Homo sapiens, UniProt P22607, V555M); assay: as above; details: V555M mutant; read-out: FGFR3 (V555M) (Kd nM)
T5 construct: made in house; host or cells: E. coli (BL21-derived), T7 phage
Outline: as §2

T2 sequence (P22607 23-806): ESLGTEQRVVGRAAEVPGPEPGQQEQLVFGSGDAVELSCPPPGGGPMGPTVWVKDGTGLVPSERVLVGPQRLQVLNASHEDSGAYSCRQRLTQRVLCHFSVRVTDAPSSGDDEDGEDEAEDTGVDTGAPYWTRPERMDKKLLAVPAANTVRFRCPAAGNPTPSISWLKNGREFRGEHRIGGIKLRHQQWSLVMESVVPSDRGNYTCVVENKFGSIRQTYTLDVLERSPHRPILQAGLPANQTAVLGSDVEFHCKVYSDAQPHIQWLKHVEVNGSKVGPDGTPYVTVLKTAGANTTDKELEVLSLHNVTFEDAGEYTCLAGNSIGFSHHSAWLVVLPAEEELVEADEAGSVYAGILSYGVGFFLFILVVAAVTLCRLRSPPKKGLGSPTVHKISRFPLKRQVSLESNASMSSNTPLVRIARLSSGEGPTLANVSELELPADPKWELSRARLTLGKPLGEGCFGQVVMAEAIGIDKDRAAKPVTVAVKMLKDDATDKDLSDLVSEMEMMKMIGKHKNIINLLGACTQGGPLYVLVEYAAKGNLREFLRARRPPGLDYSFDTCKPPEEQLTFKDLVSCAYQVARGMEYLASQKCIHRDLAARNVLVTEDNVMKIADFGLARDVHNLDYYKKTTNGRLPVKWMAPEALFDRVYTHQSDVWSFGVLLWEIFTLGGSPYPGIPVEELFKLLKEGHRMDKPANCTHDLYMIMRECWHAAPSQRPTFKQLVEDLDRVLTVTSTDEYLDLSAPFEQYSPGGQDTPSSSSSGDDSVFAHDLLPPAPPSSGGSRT
T1 sequence (P22455 22-802): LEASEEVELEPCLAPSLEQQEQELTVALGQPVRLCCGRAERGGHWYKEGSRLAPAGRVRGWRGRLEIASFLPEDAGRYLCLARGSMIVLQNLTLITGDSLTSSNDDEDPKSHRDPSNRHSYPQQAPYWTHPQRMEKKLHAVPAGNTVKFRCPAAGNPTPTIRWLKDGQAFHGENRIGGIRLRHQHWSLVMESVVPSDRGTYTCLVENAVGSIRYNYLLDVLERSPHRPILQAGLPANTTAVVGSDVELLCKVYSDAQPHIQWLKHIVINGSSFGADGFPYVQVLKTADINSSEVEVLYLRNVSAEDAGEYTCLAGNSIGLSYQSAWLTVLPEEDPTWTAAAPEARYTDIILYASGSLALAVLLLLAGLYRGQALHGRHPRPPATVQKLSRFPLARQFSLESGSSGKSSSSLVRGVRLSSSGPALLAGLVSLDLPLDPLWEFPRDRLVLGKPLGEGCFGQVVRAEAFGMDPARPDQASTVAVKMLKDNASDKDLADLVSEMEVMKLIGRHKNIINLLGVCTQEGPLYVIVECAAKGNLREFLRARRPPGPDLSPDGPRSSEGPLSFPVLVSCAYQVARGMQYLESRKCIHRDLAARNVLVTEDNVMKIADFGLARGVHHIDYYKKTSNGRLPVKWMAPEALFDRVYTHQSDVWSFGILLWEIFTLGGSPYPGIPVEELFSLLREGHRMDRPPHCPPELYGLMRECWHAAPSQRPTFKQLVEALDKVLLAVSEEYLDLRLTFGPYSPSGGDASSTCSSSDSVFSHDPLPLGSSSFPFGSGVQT
T4 sequence (P21802 22-821): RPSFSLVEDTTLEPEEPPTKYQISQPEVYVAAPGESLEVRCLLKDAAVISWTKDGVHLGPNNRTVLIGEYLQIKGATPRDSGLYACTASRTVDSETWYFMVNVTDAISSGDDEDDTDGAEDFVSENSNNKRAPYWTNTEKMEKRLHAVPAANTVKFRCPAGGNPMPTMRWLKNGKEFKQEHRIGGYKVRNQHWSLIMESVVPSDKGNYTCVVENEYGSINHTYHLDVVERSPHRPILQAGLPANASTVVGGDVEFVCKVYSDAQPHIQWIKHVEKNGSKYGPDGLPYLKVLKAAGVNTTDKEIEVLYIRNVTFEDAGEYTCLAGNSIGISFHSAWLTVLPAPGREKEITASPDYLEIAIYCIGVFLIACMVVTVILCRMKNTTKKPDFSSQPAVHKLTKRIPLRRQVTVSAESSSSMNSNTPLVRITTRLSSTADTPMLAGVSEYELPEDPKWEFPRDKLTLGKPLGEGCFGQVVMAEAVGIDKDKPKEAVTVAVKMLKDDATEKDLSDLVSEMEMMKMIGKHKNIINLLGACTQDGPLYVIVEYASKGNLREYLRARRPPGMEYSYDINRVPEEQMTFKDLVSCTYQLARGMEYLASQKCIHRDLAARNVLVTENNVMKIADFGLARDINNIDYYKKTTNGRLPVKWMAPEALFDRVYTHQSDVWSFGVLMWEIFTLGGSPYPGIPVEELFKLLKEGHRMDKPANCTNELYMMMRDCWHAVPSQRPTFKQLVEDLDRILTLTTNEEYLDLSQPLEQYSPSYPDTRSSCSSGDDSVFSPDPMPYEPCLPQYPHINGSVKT
T3 sequence (P11362 22-822): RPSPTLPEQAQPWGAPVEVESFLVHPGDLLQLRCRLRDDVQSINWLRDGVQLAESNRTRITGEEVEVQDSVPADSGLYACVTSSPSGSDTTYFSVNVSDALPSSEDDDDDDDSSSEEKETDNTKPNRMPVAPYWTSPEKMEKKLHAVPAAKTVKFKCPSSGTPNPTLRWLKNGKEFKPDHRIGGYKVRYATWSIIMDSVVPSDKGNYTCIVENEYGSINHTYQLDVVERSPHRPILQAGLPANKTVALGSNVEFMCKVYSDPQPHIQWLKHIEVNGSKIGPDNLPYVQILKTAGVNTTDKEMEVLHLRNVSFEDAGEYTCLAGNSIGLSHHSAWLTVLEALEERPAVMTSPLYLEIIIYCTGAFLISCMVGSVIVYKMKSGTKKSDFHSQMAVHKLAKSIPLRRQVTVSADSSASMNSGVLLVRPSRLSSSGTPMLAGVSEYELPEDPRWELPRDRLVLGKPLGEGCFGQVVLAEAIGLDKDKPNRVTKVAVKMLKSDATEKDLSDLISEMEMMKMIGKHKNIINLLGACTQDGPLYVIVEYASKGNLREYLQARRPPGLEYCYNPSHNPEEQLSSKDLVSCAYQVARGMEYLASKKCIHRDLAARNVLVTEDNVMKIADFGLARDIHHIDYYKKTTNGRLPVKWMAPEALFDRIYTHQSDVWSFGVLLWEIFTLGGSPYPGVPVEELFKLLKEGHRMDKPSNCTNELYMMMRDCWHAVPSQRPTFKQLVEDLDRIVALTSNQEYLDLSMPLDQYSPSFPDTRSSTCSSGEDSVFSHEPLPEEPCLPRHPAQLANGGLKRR
T5 sequence (P22607 23-806 V555M): as the sequence (P22607 23-806) above, with V533M counted along it

Row | SMILES | IC50 [1] [nM] | IC50 [2] [nM] | IC50 [3] [nM] | IC50 [4] [nM] | Kd (FGFR4) [nM] | Kd (FGFR3) [nM] | Kd (FGFR1) [nM] | Kd (FGFR2) [nM] | Kd (FGFR3 (V555M)) [nM]
1 | C[C@@H](Oc1ccc2[nH]nc(-c3cnc(N4CC(C)(NC5COC5)C4)c(C#N)c3)c2c1)c1c(Cl)cncc1Cl [Example 4, (R)-5-(5-(1-(3,5-dichloropyridin-4-yl)ethoxy)-1H-indazol-3-yl)-2-(3-methyl-3-(oxetan-3-ylamino)azetidin-1-yl)nicotinonitrile] | 0.1 to 50 | 50 to 200 | 200 to 1000 | 200 to 1000 | 1 to 50 | 1 to 50 | 50 to 300 | 50 to 300 | 1 to 50
2 | C[C@@H](Oc1ccc2[nH]nc(-c3cnc(N4CC(C)(NC5CS(=O)(=O)C5)C4)c(C#N)c3)c2c1)c1c(Cl)cncc1Cl [Example 7, (R)-5-(5-(1-(3,5-dichloropyridin-4-yl)ethoxy)-1H-indazol-3-yl)-2-(3-((1,1-dioxidothietan-3-yl)amino)-3-methylazetidin-1-yl)nicotinonitrile] | 0.1 to 50 | 0.1 to 50 | 200 to 1000 | 50 to 200 | 1 to 50 | 1 to 50 | 50 to 300 | 50 to 300 | 1 to 50
3 | COc1cc2[nH]nc(-c3cnc(N4CC(C)(N(C)C)C4)c(C#N)c3)c2cc1O[C@H](C)c1c(Cl)cncc1Cl [Example 10, 5-[5-[(1R)-1-(3,5-dichloro-4-pyridyl)ethoxy]-6-methoxy-1H-indazol-3-yl]-2-[3-(dimethylamino)-3-methyl-azetidin-1-yl]pyridine-3-carbonitrile] | 0.1 to 50 | 0.1 to 50 | 50 to 200 | 50 to 200 | 1 to 50 | 1 to 50 | 1 to 50 | 1 to 50 | 1 to 50
4 | COc1cc2[nH]nc(-c3cnc(N4CC(C)(N5CCCC5)C4)c(C#N)c3)c2cc1O[C@H](C)c1c(Cl)cncc1Cl [Example 15, 5-[5-[(1R)-1-(3,5-dichloro-4-pyridyl)ethoxy]-6-methoxy-1H-indazol-3-yl]-2-(3-methyl-3-pyrrolidin-1-yl-azetidin-1-yl)pyridine-3-carbonitrile] | 0.1 to 50 | 0.1 to 50 | 50 to 200 | 50 to 200 | 1 to 50 | 1 to 50 | 1 to 50 | 1 to 50 | 1 to 50
5 | C[C@@H](Oc1ccc2[nH]nc(-c3cnc(N4CC(C)(N5CCCC5)C4)c(C#N)c3)c2c1)c1c(Cl)cncc1Cl [Example 17, (R)-5-(5-(1-(3,5-Dichloropyridin-4-yl)ethoxy)-1H-indazol-3-yl)-2-(3-methyl-3-(pyrrolidin-1-yl)azetidin-1-yl)nicotinonitrile] | 0.1 to 50 | 50 to 200 | 200 to 1000 | 200 to 1000 | 1 to 50 | 1 to 50 | 1 to 50 | 1 to 50 | 1 to 50
6 | Cc1ncc(Cl)c([C@@H](C)Oc2ccc3[nH]nc(-c4cnc(N5CC(C)(NC6CCC6)C5)c(C#N)c4)c3c2)c1Cl [Example 19, 2-[3-(cyclobutylamino)-3-methyl-azetidin-1-yl]-5-[5-[(1R)-1-(3,5-dichloro-2-methyl-4-pyridyl)ethoxy]-1H-indazol-3-yl]pyridine-3-carbonitrile] | 0.1 to 50 | 200 to 1000 | 200 to 1000 | > 1000 | 1 to 50 | 1 to 50 | 50 to 300 | 300 to 1000 | 1 to 50
7 | COc1cc2[nH]nc(-c3cnc(N4CC(CC#N)(N5CCCC5)C4)c(C#N)c3)c2cc1O[C@H](C)c1c(Cl)cncc1Cl [Example 354, (R)-2-(3-(cyanomethyl)-3-(pyrrolidin-1-yl)azetidin-1-yl)-5-(5-(1-(3,5-dichloropyridin-4-yl)ethoxy)-6-methoxy-1H-indazol-3-yl)nicotinonitrile] | 0.1 to 50 | 0.1 to 50 | 50 to 200 | 0.1 to 50 | 1 to 50 | 1 to 50 | 1 to 50 | 1 to 50 | –
8 | COc1cc2[nH]nc(-c3cnc(N4CC(N)(C5CCC5)C4)c(C#N)c3)c2cc1O[C@H](C)c1c(Cl)cncc1Cl [Example 356, (R)-2-(3-amino-3-cyclobutylazetidin-1-yl)-5-(5-(1-(3,5-dichloropyridin-4-yl)ethoxy)-6-methoxy-1H-indazol-3-yl)nicotinonitrile] | 0.1 to 50 | 0.1 to 50 | 50 to 200 | 200 to 1000 | 1 to 50 | 1 to 50 | 1 to 50 | 1 to 50 | –
9 | COc1cc2[nH]nc(-c3cnc(N4CC(N)(CC(C)C)C4)c(C#N)c3)c2cc1O[C@H](C)c1c(Cl)cncc1Cl [Example 357, (R)-2-(3-amino-3-isobutylazetidin-1-yl)-5-(5-(1-(3,5-dichloropyridin-4-yl)ethoxy)-6-methoxy-1H-indazol-3-yl)nicotinonitrile] | 0.1 to 50 | 50 to 200 | 50 to 200 | 50 to 200 | 1 to 50 | 1 to 50 | 1 to 50 | 1 to 50 | –
10 | COc1cc2[nH]nc(-c3cnc(N4CC(N)(CC5CC5)C4)c(C#N)c3)c2cc1O[C@H](C)c1c(Cl)cncc1Cl [Example 359] | 0.1 to 50 | 50 to 200 | 50 to 200 | 50 to 200 | 1 to 50 | 1 to 50 | 1 to 50 | 1 to 50 | –
11 | CCCC1(N)CN(c2ncc(-c3n[nH]c4cc(OC)c(O[C@H](C)c5c(Cl)cncc5Cl)cc34)cc2C#N)C1 [Example 360, (R)-2-(3-amino-3-propylazetidin-1-yl)-5-(5-(1-(3,5-dichloropyridin-4-yl)ethoxy)-6-methoxy-1H-indazol-3-yl)nicotinonitrile] | 0.1 to 50 | 0.1 to 50 | 50 to 200 | 50 to 200 | 1 to 50 | 1 to 50 | 1 to 50 | 1 to 50 | –
12 | COc1cc2[nH]nc(-c3cnc(N4CC(N)(CC(C)(C)O)C4)c(C#N)c3)c2cc1O[C@H](C)c1c(Cl)cncc1Cl [Example 361, (R)-2-(3-amino-3-(2-hydroxy-2-methylpropyl)azetidin-1-yl)-5-(5-(1-(3,5-dichloropyridin-4-yl)ethoxy)-6-methoxy-1H-indazol-3-yl)nicotinonitrile] | 50 to 200 | 50 to 200 | 200 to 1000 | 50 to 200 | 1 to 50 | 1 to 50 | 1 to 50 | 1 to 50 | –
13 | C=CCC1(N)CN(c2ncc(-c3n[nH]c4cc(OC)c(O[C@H](C)c5c(Cl)cncc5Cl)cc34)cc2C#N)C1 [Example 362, (R)-2-(3-ally1-3-aminoazetidin-1-yl)-5-(5-(1-(3,5-dichloropyridin-4-yl)ethoxy)-6-methoxy-1H-indazol-3-yl)nicotinonitrile] | 0.1 to 50 | 0.1 to 50 | 50 to 200 | 50 to 200 | 1 to 50 | 1 to 50 | 1 to 50 | 1 to 50 | –
14 | COc1cc2[nH]nc(-c3cnc(N4CC(N)(CC=C(C)C)C4)c(C#N)c3)c2cc1O[C@H](C)c1c(Cl)cncc1Cl [Example 363, (R)-2-(3-amino-3-(3-methylbut-2-en-1-yl)azetidin-1-yl)-5-(5-(1-(3,5-dichloropyridin-4-yl)ethoxy)-6-methoxy-1H-indazol-3-yl)nicotinonitrile] | 0.1 to 50 | 0.1 to 50 | 200 to 1000 | 50 to 200 | 1 to 50 | 1 to 50 | 1 to 50 | 1 to 50 | –
15 | COc1cc2[nH]nc(-c3cnc(N4CC(N)(CCS(C)(=O)=O)C4)c(C#N)c3)c2cc1O[C@H](C)c1c(Cl)cncc1Cl [Example 364, (R)-2-(3-amino-3-(2-(methylsulfonyl)ethyl)azetidin-1-yl)-5-(5-(1-(3,5-dichloropyridin-4-yl)ethoxy)-6-methoxy-1H-indazol-3-yl)nicotinonitrile] | 0.1 to 50 | 50 to 200 | > 1000 | 50 to 200 | 1 to 50 | 1 to 50 | 1 to 50 | 1 to 50 | –
16 | CCC1(N)CN(c2ncc(-c3n[nH]c4cc(OC)c(O[C@H](C)c5c(Cl)cncc5Cl)cc34)cc2C#N)C1 [Example 365, 2-(3-amino-3-ethyl-azetidin-1-yl)-5-[5-[(1R)-1-(3,5-dichloro-4-pyridyl)ethoxy]-6-methoxy-1H-indazol-3-yl]pyridine-3-carbonitrile] | 0.1 to 50 | 0.1 to 50 | 0.1 to 50 | 50 to 200 | 1 to 50 | 1 to 50 | 1 to 50 | 1 to 50 | –
